From patent US9546144B2, “Bifunctional compounds” (University of Pittsburgh—of the Commonwealth System of …, priority 2011, dated 2017)
Values after ≈ are worked out from the molar mass of the structure shown.

Test: physchem
Conditions: aqueous buffer, kinetic from dmso stock
Protocol: General procedure for kinetic solubility measurements. A polypropylene tube was charged with PBS solution (490 μL). To the buffer was added a 10 mM stock solution of compound (10 μL). The tube was vortexed and equilibrated on an end-over-end rotator for 15 min at rt. Aliquots (400 μL) were filtered through 0.45 μm syringe filters and diluted to 5.0 mL with absolute MeOH. Concentrations were determined by UV/VIS analysis.
The test compounds were prepared at concentrations of 10 mM and added to the buffer at room temperature such that cosolvent concentration was fixed at 2%.

Row | SMILES | solubility kinetic at 15 min
1 | COC(=O)Nc1nc2ccccc2[nH]1 [compound 10, carbendazim] | 140 ± 13 µM (≈ 26.8 µg/mL)
2 | COC1=CC(=O)C[C@@H](C)[C@]12Oc1c(Cl)c(OC)cc(OC)c1C2=O [compound 11, griseofulvin] | 180 ± 13 µM (≈ 63.5 µg/mL)
